In the CheMixHub viscosity set:

Test: xn = mol fraction of the nth substance listed

Cc1cccc(N)c1 + C1CCCCC1
303.15 K, 101.33 kPa
Details	viscosity [mPa·s]
x1 = 0.2	0.95
x1 = 0.398	1.13
x1 = 0.559	1.35
x1 = 0.786	1.88

C1CCC(C2CCCCC2)CC1 + C1CC[C@H]2CCCC[C@@H]2C1
viscosity [mPa·s], 102 kPa
Details	x2 = 0.1185	x2 = 0.2312	x2 = 0.3405	x2 = 0.4451	x2 = 0.546	x2 = 0.6433	x2 = 0.7374	x2 = 0.828	x2 = 0.9154
293.15 K	3.72	3.43	3.17	2.96	2.77	2.6	2.45	2.33	2.21
303.15 K	2.95	2.74	2.56	2.4	2.27	2.15	2.03	1.94	1.85
313.15 K	2.39	2.24	2.11	1.99	1.89	1.8	1.71	1.64	1.57
323.15 K	1.98	1.87	1.77	1.68	1.6	1.52	1.46	1.4	1.34

Cc1cccc(N)c1 + CC1CCCCC1
303.15 K, 101.33 kPa
Details	viscosity [mPa·s]
x1 = 0.204	0.79
x1 = 0.4	0.96
x1 = 0.6	1.25
x1 = 0.8	1.75

CCCCOCCOCCOCCCC + CC1COC(=O)O1
viscosity [mPa·s], 101.3 kPa
Details	298.15 K	308.15 K	318.15 K
x1 = 0.007	2.562	2.064	1.704
x1 = 0.0158	2.574	2.086	1.721
x1 = 0.059	2.676	2.174	1.735
x1 = 0.1317	2.748	2.244	1.768
x1 = 0.2166	2.735	2.263	1.773
x1 = 0.3183	2.7	2.187	1.729
x1 = 0.356	2.674	2.161	1.712
x1 = 0.3871	2.649	2.141	1.695
x1 = 0.4126	2.635	2.129	1.686
x1 = 0.4929	2.579	2.086	1.649
x1 = 0.5658	2.534	2.051	1.623
x1 = 0.5869	2.526	2.045	1.62
x1 = 0.6616	2.487	2.013	1.595
x1 = 0.7058	2.475	1.999	1.584
x1 = 0.748	2.469	1.992	1.566
x1 = 0.8266	2.402	1.954	1.537
x1 = 0.9183	2.323	1.899	1.489

CN1CCCN2CCCN=C12 + CC(=O)O
100 kPa, x1 = 0.1125
Details	viscosity [mPa·s]
294.45 K	12.9
298.17 K	11.3
308.1 K	8.1
323.06 K	5.4

CCCCCCCCCCCC(=O)O + CC(C)[C@@H]1CC[C@@H](C)C[C@H]1O
viscosity [mPa·s]
Details	293.15 K	298.15 K	303.15 K	308.15 K	313.15 K	318.15 K	323.15 K
100 kPa, x1 = 0.25	–	28.1	20.91	15.93	12.4	9.84	7.94
100 kPa, x2 = 0.33	33.06	24.42	18.63	14.51	11.45	9.293	7.61
101 kPa, x1 = 0.333	21.81	–	12.5	–	7.657	–	5.112

CCCC[N+](CCCC)(CCCC)CCCC.[Br-] + CC(O)CO
101 kPa, x1 = 0.2
Details	viscosity [mPa·s]
298.15 K	96.3
303.15 K	71.6
308.15 K	54.5
313.15 K	42.1
318.15 K	33.2
323.15 K	26.6

CCCCCCCCCCCCCC(=O)OCC + CCC1CCCCC1
viscosity [mPa·s], 100 kPa
Details	x2 = 0.0998	x2 = 0.2	x2 = 0.3001	x2 = 0.4002	x2 = 0.5	x2 = 0.6	x2 = 0.6999	x2 = 0.8	x2 = 0.9
293.15 K	4.251	3.768	3.305	2.865	2.44	2.053	1.709	1.387	1.105
298.15 K	3.763	3.351	2.962	2.582	2.221	1.88	1.572	1.286	1.034
303.15 K	3.361	3.011	2.672	2.34	2.022	1.726	1.45	1.199	0.972
308.15 K	3.01	2.709	2.411	2.12	1.845	1.579	1.335	1.11	0.904
313.15 K	2.694	2.432	2.18	1.925	1.685	1.454	1.234	1.031	0.839
318.15 K	2.461	2.227	2	1.775	1.558	1.353	1.152	0.964	0.791
323.15 K	2.242	2.032	1.829	1.628	1.436	1.251	1.071	0.9	0.736

C=C1CCC2CC1C2(C)C (stereo unspecified) + CCCCCC
298.15 K, 101.33 kPa
Details	viscosity [mPa·s]
x2 = 0.0421	1.455
x2 = 0.0626	1.392
x2 = 0.2031	1.055
x2 = 0.2799	0.914
x2 = 0.3765	0.772
x2 = 0.4939	0.634
x2 = 0.5597	0.57
x2 = 0.6601	0.488
x2 = 0.7454	0.427
x2 = 0.8217	0.381
x2 = 0.8935	0.344
x2 = 0.9595	0.312

CCCCCCCCCCCCOC(C)=O + CCCCCC
303.15 K, 101.3 kPa
Details	viscosity [mPa·s]
x1 = 0.1919	0.5038
x1 = 0.3182	0.7197
x1 = 0.4783	1.079
x1 = 0.522	1.2
x1 = 0.748	1.958

Cc1cccc(N)c1 + CCCCCC
viscosity [mPa·s], 101.33 kPa
Details	x1 = 0.236	x1 = 0.396	x1 = 0.579	x1 = 0.787
295.15 K	0.46	0.69	0.95	1.54
305.15 K	0.39	0.55	0.77	1.25

CCCCCCCCCCCC(=O)O + CCCCCCCCCC(=O)O
100 kPa, x1 = 0.33
Details	viscosity [mPa·s]
293.15 K	12.89
298.15 K	10.76
303.15 K	9.199
308.15 K	7.939
313.15 K	6.909
318.15 K	6.059
323.15 K	5.349

CCCCC(=O)O + CCCCCCCCCCO
viscosity [mPa·s], 100 kPa
Details	x1 = 0.0851	x1 = 0.1742	x1 = 0.2512	x1 = 0.3616	x1 = 0.4363	x1 = 0.5587	x1 = 0.6618	x1 = 0.7474	x1 = 0.8618	x1 = 0.9312
293.15 K	12.76	11.18	9.99	8.58	7.71	6.4	5.35	4.5	3.44	2.83
303.15 K	8.73	7.68	6.9	5.97	5.41	4.56	3.89	3.35	2.65	2.25
313.15 K	6.17	5.54	5.06	4.45	4.07	3.47	2.99	2.61	2.12	1.83
323.15 K	4.49	4.09	3.79	3.38	3.12	2.7	2.37	2.1	1.75	1.55

NCCNCCN + CCCCCCCCCCO
viscosity [mPa·s], 101 kPa
Details	298.15 K	303.15 K	308.15 K
x1 = 0.0564	12.02	9.924	8.366
x1 = 0.1003	12.52	10.34	8.775
x1 = 0.1543	12.81	10.46	8.862
x1 = 0.2007	12.75	10.39	8.738
x1 = 0.259	12.43	10.11	8.451
x1 = 0.3083	12	9.746	8.092
x1 = 0.4061	10.91	8.874	7.255
x1 = 0.5034	9.787	7.869	6.538
x1 = 0.6067	8.422	6.913	5.779
x1 = 0.7075	7.345	6.087	5.117
x1 = 0.8062	6.406	5.281	4.552
x1 = 0.852	6.037	4.932	4.298
x1 = 0.9067	5.656	4.678	4.065
x1 = 0.9524	5.499	4.556	3.897

CCCCC(=O)O + CCCCCCCCCO
viscosity [mPa·s], 100 kPa
Details	x1 = 0.0827	x1 = 0.1635	x1 = 0.2318	x1 = 0.3519	x1 = 0.4517	x1 = 0.5569	x1 = 0.6472	x1 = 0.7328	x1 = 0.8691	x1 = 0.9502
293.15 K	10.14	8.95	8.08	6.89	6.05	5.25	4.6	4	3.09	2.56
303.15 K	6.95	6.12	5.53	4.73	4.16	3.64	3.22	2.86	2.32	2.03
313.15 K	5.09	4.64	4.3	3.78	3.39	2.99	2.67	2.38	1.95	1.71
323.15 K	3.76	3.47	3.26	2.92	2.66	2.39	2.17	1.96	1.64	1.46

CCCC[N+](CCCC)(CCCC)CCCC.[Br-] + CCCCCCCCCO
101.3 kPa, x1 = 0.2
Details	viscosity [mPa·s]
293.15 K	56.57
298.15 K	43.65
303.15 K	35.27
308.15 K	28.53
313.15 K	23.29
318.15 K	19.13
323.15 K	15.99
